From patent publication US20030215462A1, “Use of UGT inhibitors to increase bioavailability” (priority 2001, published 2003)

Legend:
[1] = target: T1, UGT1A1 (Homo sapiens, UniProt P22309); experiment: Inhibition of raloxifene glucuronidation by recombinant UGT1A1 Supersomes; conditions: for Inhibition of raloxifene glucuronidation, G1, UGT1A1 / Inhibition of raloxifene glucuronidation, G2, UGT1A1: raloxifene 50 μM, 250 μg/ml Supersomes, 1 mM UDPGA, 15 min; for % of control metabolism, raloxifene G1 / % of control metabolism, raloxifene G2: UGT1A1
T1 sequence (P22309 26-533): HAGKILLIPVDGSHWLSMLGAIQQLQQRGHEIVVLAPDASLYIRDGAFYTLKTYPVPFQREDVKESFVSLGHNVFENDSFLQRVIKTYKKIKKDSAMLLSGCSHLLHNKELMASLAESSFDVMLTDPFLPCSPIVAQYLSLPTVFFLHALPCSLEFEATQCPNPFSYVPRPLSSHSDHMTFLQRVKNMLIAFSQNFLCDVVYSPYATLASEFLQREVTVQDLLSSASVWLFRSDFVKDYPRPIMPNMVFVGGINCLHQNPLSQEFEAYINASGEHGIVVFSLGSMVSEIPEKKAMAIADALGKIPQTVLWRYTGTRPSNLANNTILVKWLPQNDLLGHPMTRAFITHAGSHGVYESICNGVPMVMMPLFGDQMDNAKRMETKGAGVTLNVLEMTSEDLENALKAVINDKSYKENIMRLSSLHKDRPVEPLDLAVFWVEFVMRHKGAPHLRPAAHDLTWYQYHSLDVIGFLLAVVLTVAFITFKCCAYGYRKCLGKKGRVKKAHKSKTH
Description: (§1) Compounds were eluted using a binary solvent gradient system. Solvent A was water brought to pH 8 with NH4OH. Solvent B was methanol. Solvent flow rate was 1 ml/min and the column temperature was maintained at 50° C. Detection was at 280 nm. […] The system was then returned to the initial conditions and equilibrated for 3 min.

[2] = target: T2, UGT1A3 (Homo sapiens, UniProt P35503); experiment: Inhibition of raloxifene glucuronidation by recombinant UGT1A3 Supersomes; conditions: for Inhibition of raloxifene glucuronidation, G1, UGT1A3 / Inhibition of raloxifene glucuronidation, G2, UGT1A3: raloxifene 50 μM, 250 μg/ml Supersomes, 1 mM UDPGA, 15 min; for % of control metabolism, raloxifene G1 / % of control metabolism, raloxifene G2: UGT1A3
T2 sequence (P35503 29-534): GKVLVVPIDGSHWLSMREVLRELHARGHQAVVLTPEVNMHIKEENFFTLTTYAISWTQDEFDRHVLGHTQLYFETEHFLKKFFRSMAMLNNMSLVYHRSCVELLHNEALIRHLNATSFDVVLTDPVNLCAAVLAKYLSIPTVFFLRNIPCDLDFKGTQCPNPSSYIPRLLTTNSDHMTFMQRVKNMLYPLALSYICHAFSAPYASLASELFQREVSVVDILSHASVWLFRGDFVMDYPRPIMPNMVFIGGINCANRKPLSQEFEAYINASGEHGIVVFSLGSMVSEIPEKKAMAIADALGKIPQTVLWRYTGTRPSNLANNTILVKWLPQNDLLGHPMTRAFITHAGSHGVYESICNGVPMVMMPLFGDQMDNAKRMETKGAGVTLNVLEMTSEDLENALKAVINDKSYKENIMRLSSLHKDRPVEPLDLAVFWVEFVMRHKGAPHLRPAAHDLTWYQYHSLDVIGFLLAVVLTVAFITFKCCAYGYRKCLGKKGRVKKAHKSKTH
Description: as §1

[3] = test system: T3, UGT enzymes of human liver microsomes; experiment: Kinetic and Ki studies of inhibitors of 7-HFC glucuronidation in human liver microsomes; assay type: biochemical; conditions: 7-HFC 20-500 μM
T3 construct: percentage of control metabolism, 7-HFC glucuronidation; percentage of control metabolism, 7-HFC glucuronidation

[4] = target: T4, UGT1A9 (Homo sapiens, UniProt O60656); experiment: Inhibition of raloxifene glucuronidation by recombinant UGT1A9 Supersomes; conditions: for % of control metabolism, raloxifene G1 / % of control metabolism, raloxifene G2: UGT1A9; for Inhibition of raloxifene glucuronidation, UGT1A9, first line per inhibitor (G1): first line (G1, metabolite not given); for Inhibition of raloxifene glucuronidation, UGT1A9, first line per inhibitor (G1) / Inhibition of raloxifene glucuronidation, UGT1A9, second line per inhibitor (G2): raloxifene 50 μM, 250 μg/ml Supersomes, 1 mM UDPGA, 15 min; for Inhibition of raloxifene glucuronidation, UGT1A9, second line per inhibitor (G2): second line (G2, metabolite not given)
T4 sequence (O60656 26-530): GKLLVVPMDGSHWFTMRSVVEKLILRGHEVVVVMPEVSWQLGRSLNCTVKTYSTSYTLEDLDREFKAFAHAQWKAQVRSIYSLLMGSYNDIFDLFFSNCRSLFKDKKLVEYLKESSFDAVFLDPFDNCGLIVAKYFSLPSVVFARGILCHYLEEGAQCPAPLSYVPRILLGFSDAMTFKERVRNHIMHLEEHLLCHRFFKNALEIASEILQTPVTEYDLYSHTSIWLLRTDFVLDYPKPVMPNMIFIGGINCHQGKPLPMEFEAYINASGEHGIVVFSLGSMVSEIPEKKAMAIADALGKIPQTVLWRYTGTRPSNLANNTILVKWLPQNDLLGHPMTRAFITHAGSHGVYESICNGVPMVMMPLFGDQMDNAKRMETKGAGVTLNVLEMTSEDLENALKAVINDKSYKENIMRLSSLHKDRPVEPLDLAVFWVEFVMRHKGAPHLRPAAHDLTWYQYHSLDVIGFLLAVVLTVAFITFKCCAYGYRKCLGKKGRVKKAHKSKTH

[5] = test system: UGT enzymes of pooled human jejunum microsomes; experiment: Inhibition of estradiol (E2) glucuronidation in pooled human jejunum microsomes; assay type: biochemical; conditions: jejunum HJ61; E2 50 μM; inhibitor 50 μM
Description: Compounds were eluted using a binary solvent gradient system where solvent A was dilute phosphoric acid (pH 3) and solvent B was 80:20 acetonitrile-methanol. […] Detection was at 280 nm.

[6] = inhibitor column headed only "μM" (between 25 μM and 5 μM)

## O=C(O[C@@H]1Cc2c(O)cc(O)cc2O[C@@H]1c1cc(O)c(O)c(O)c1)c1cc(O)c(O)c(O)c1 [Epigallocatechin gallate]
[1]; inhibitor 25 μM
  Inhibition of raloxifene glucuronidation, G1, UGT1A1: 44 (1)
  Inhibition of raloxifene glucuronidation, G2, UGT1A1: 45 (1)
  % of control metabolism, raloxifene G1: 44 (1) %
  % of control metabolism, raloxifene G2: 45 (1) %
[1]; inhibitor 50 μM
  Inhibition of raloxifene glucuronidation, G1, UGT1A1: 21 (0)
  Inhibition of raloxifene glucuronidation, G2, UGT1A1: 25 (1)
  % of control metabolism, raloxifene G1: 21 (0) %
  % of control metabolism, raloxifene G2: 25 (1) %
[1]; [6]
  Inhibition of raloxifene glucuronidation, G1, UGT1A1: 70 (1)
  Inhibition of raloxifene glucuronidation, G2, UGT1A1: 74 (2)
[2]; inhibitor 25 μM
  Inhibition of raloxifene glucuronidation, G1, UGT1A3: 69 (2)
  Inhibition of raloxifene glucuronidation, G2, UGT1A3: 64 (3)
  % of control metabolism, raloxifene G1: 69 (2) %
  % of control metabolism, raloxifene G2: 64 (3) %
[2]; inhibitor 50 μM
  Inhibition of raloxifene glucuronidation, G1, UGT1A3: 26 (2)
  Inhibition of raloxifene glucuronidation, G2, UGT1A3: 25 (1)
  % of control metabolism, raloxifene G1: 26 (2) %
  % of control metabolism, raloxifene G2: 25 (1) %
[3]
  Vmax of 7-HFC glucuronidation (fit of the experiment with this inhibitor): 54 ± 3 nmol/min/mg
[3]; read-out: Km of 7-HFC glucuronidation (fit of the experiment with this inhibitor)
  Km: 75 ± 7 µM
[4]; inhibitor 25 μM
  % of control metabolism, raloxifene G1: 58 (1) %
  % of control metabolism, raloxifene G2: 50 (1) %
  Inhibition of raloxifene glucuronidation, UGT1A9, first line per inhibitor (G1): 58 (1)
  Inhibition of raloxifene glucuronidation, UGT1A9, second line per inhibitor (G2): 50 (1)
[4]; inhibitor 50 μM
  % of control metabolism, raloxifene G1: 33 (4) %
  % of control metabolism, raloxifene G2: 22 (2) %
  Inhibition of raloxifene glucuronidation, UGT1A9, first line per inhibitor (G1): 33 (4)
  Inhibition of raloxifene glucuronidation, UGT1A9, second line per inhibitor (G2): 22 (2)
[5]
  residual metabolism (% of control), E2-3-β-D-glucuronide: 32 (0) %
  residual metabolism (% of control), E2-17-β-D-glucuronide: 41 (4) %
